The source of these data is article PMC9146896, “Uracil as a Zn-Binding Bioisostere of the Allergic Benzenesulfonamide in the Design of Quinoline–Uracil Hybrids as Anticancer Carbonic Anhydrase Inhibitors” (Pharmaceuticals, 2022).

In data set [1] the target is hCA I (Homo sapiens, UniProt P00915). The data set is described as follows: Carbonic anhydrase inhibition, colorimetric method (BioVision CA Inhibitor Screening Kit).
The target in data set [2] is hCA IX (Homo sapiens, UniProt Q16790). The data set is described as above. Conditions: for Selectivity index I/IX: hCA IX over hCA I; for Selectivity index II/IX: hCA IX over hCA II.
Data set [3] concerns the target hCA XII (Homo sapiens, UniProt O43570). Described as above. Particulars: for Selectivity index I/XII: hCA XII over hCA I; for Selectivity index II/XII: hCA XII over hCA II.
Data set [4] addresses hCA II (Homo sapiens, UniProt P00918). The data set is described as above.
Data set [5] deals with Bax. In words: Assessment of apoptotic marker levels: Bax in MCF-7. In kind it is cell-based. The text has this: (§1) The two cytoplasmic proteins, B-cell lymphoma protein 2 (Bcl-2) and its associated X protein (Bax), are essential for apoptosis in normal cells. Bax is a promoter and Bcl-2 is an inhibitor of apoptosis. Thus, the effect of 10d and 10l on apoptotic markers Bax and Bcl-2 in a breast cancer cell line (MCF-7) and a lung cancer cell line (A549) has been estimated.

For data set [6], the system named is Bcl-2. The data set is described as follows: Assessment of apoptotic marker levels: Bcl-2 in A549. The class given is cell-based.
Excerpt: as §1

Data set [7] relates to Bax. In words: Assessment of apoptotic marker levels: Bax in A549. In kind it is cell-based.
Excerpt: as §1

For data set [8], the system named is breast cancer cell line (MCF-7). The data set is described as follows: Antiproliferative activity, MTT assay under hypoxic conditions. Particulars: Homo sapiens, MCF7, read-out: Cytotoxicity IC50 MCF7.
Data set [9] concerns Bcl-2. In words: Assessment of apoptotic marker levels: Bcl-2 in MCF-7. The class given is cell-based.
Excerpt: as §1

Chain of hCA XII (O43570 25-354): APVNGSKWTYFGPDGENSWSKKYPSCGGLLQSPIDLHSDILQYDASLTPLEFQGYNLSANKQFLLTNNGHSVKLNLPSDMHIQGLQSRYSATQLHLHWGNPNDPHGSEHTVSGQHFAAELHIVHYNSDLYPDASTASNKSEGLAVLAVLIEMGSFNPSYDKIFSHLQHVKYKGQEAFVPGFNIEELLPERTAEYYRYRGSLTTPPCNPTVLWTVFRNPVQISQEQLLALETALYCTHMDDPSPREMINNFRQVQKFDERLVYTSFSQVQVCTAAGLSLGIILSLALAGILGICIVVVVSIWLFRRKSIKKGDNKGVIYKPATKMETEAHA
Chain of hCA I (P00915 whole entry): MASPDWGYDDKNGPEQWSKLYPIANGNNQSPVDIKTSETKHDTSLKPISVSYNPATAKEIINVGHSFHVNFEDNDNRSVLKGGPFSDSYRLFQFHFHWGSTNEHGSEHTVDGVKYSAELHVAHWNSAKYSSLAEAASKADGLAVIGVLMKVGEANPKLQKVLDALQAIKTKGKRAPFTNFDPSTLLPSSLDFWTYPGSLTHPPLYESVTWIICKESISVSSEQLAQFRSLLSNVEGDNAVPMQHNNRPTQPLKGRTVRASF

Broadly, the melting point is the temperature, or range, at which the solid turns liquid. For orientation: IC50 means the concentration that gives 50% inhibition. For orientation: Ki means the dissociation constant of the complex between target and ligand, obtained from inhibition or displacement. Lower therefore signals tighter binding. In the case of `COc1ccc2[nH]c(=O)c(/C=N/c3c(N)[nH]c(=O)[nH]c3=O)cc2c1` [Compound 10h, (E)-6-Amino-5-(((6-methoxy-2-oxo-1,2-dihydroquinolin-3-yl)methylene)amino) pyrimidine-2,4(1H,3H)-dione], the melting point lay within 275 to 277 °C. Also, in data set [1], half-maximal inhibition (IC50) was put at 3230 nM and the affinity corresponds to a Ki of 1780 nM. Besides, in [2], 600 nM corresponded to half-maximal inhibition (IC50), the Ki was determined as 330 nM, the “Selectivity index I/IX” value is recorded as 5.39 and the “Selectivity index II/IX” value is recorded as 7.52. In data set [3], the IC50 turned out to be 400 nM, the Ki came to 220 nM, the “Selectivity index I/XII” value amounted to 8.00 and the “Selectivity index II/XII” value is reported as 11.16. In [4], this compound had an IC50 of 4500 nM and a Ki of 2490 nM.

For `COc1ccc2[nH]c(=O)c(/C=N/c3c(N)n(C)c(=O)[nH]c3=O)cc2c1` [Compound 10k, (E)-6-Amino-5-(((6-methoxy-2-oxo-1,2-dihydroquinolin-3-yl)methylene)amino)-1-methyl pyrimidine-2,4(1H,3H)-dione], the melting point lay within 293 to 295 °C. In [1], the midpoint of inhibition, the IC50, lay at 2120 nM and affinity was put at a Ki of 1170 nM. For the same compound, in data set [2], the IC50 turned out to be 1280 nM, the Ki was 710 nM, the “Selectivity index I/IX” value turned out to be 1.66 and the “Selectivity index II/IX” value is 5.14. In addition, in [3], the IC50 stood at 540 nM, the Ki turned out to be 300 nM, the “Selectivity index I/XII” value stood at 3.96 and the “Selectivity index II/XII” value is on record as 12.26. Besides, in [4], the IC50 was 6570 nM and the Ki turned out to be 3630 nM.

`CCn1c(N)c(/N=C/c2cc3cc(OC)ccc3[nH]c2=O)c(=O)[nH]c1=O` [Compound 10j, (E)-6-Amino-1-ethyl-5-(((6-methoxy-2-oxo-1,2-dihydroquinolin-3-yl)methylene)amino)pyrimidine-2,4(1H,3H)-dione] returned a melting point of 287 to 289 °C. Moreover, in data set [1], the IC50 turned out to be 890 nM and affinity was put at a Ki of 490 nM. In [2], half-maximal inhibition (IC50) required 870 nM, the Ki came out at 480 nM, the “Selectivity index I/IX” value came to 1.02 and the “Selectivity index II/IX” value was found to be 2.98. Further, in data set [3], the IC50 was 620 nM, the Ki worked out at 340 nM, the “Selectivity index I/XII” value turned out to be 1.43 and the “Selectivity index II/XII” value is 4.18. In data set [4], this compound displayed an IC50 of 2600 nM and a Ki of 1440 nM.

`Nc1[nH]c(=O)[nH]c(=O)c1/N=C/c1cc2ccccc2[nH]c1=O` [Compound 10a, (E)-6-Amino-5-(((2-oxo-1,2-dihydroquinolin-3-yl)methylene)amino)pyrimidine-2,4(1H,3H)-dione]: the melting point is 270 to 272 °C. Besides, in data set [1], the IC50 came out at 970 nM and the Ki came out at 530 nM. Moreover, in data set [2], the midpoint of inhibition, the IC50, lay at 250 nM; affinity was put at a Ki of 140 nM; the “Selectivity index I/IX” value came to 3.88; the “Selectivity index II/IX” value is 2.09. In addition, in [3], 320 nM corresponded to half-maximal inhibition (IC50), the affinity corresponds to a Ki of 170 nM, the “Selectivity index I/XII” value came out at 3.05 and the “Selectivity index II/XII” value came to 1.65. In data set [4], this compound gave an IC50 of 520 nM and a Ki of 290 nM.

`Cc1cccc2cc(/C=N/c3c(N)n(C)c(=S)[nH]c3=O)c(=O)[nH]c12` [Compound 10g, (E)-3-(((6-Amino-1-methyl-4-oxo-2-thioxo-1,2,3,4-tetrahydropyrimidin-5-yl)imino)methyl)-8-methylquinolin-2(1H)-one] had a melting point of 265 to 267 °C. In data set [1], the IC50 was found to be 2160 nM and the Ki was 1200 nM. In addition, in data set [2], half-maximal inhibition (IC50) required 1080 nM; the affinity, expressed as Ki, was 600 nM; the “Selectivity index I/IX” value is 1.99; the “Selectivity index II/IX” value is 3.10. Also, in data set [3], the IC50 was determined as 330 nM, the Ki turned out to be 180 nM, the “Selectivity index I/XII” value is 6.47 and the “Selectivity index II/XII” value came to 10.05. Further, in [4], the IC50 is 3360 nM and affinity was put at a Ki of 1860 nM.

Compound `Nc1c(/N=C/c2cc3ccccc3[nH]c2=O)c(=O)[nH]c(=O)n1Cc1ccccc1` [Compound 10b, (E)-6-Amino-1-benzyl-5-(((2-oxo-1,2-dihydroquinolin-3-yl)methylene)amino) pyrimidine-2,4(1H,3H)-dione] had a melting point of 280 to 282 °C. For the same compound, in data set [1], the IC50 amounted to 1010 nM and the Ki amounted to 560 nM. In addition, in data set [2], the IC50 was 630 nM, the affinity corresponds to a Ki of 350 nM, the “Selectivity index I/IX” value is reported as 1.60 and the “Selectivity index II/IX” value was determined as 1.81. Besides, in [3], the IC50 was found to be 350 nM, affinity was put at a Ki of 190 nM, the “Selectivity index I/XII” value came to 2.88 and the “Selectivity index II/XII” value was 3.24. Besides, in data set [4], the IC50 was 1140 nM and the Ki is 630 nM.

For `CN[C@@H]1C[C@H]2O[C@@](C)([C@@H]1OC)n1c3ccccc3c3c4c(c5c6ccccc6n2c5c31)C(=O)NC4` [Staurosporine, staurosporine, reference compound], the Bax is 381.8 ± 11.4 pg/mL in [5] and 310.5 ± 9.7 pg/mL in [7]. The Bcl2 in data set [6] is reported as 3.78 ± 0.14 nm/mL; in data set [9] it was 2.829 ± 0.07 nm/mL. In [8], the IC50 worked out at 6920 ± 180 nM.

In turn, `Cn1c(N)c(/N=C/c2cc3ccccc3[nH]c2=O)c(=O)[nH]c1=S` [Compound 10e, (E)-3-(((6-Amino-1-methyl-4-Oxo-2-thioxo-1,2,3,4-tetrahydropyrimidin-5-yl)imino)methyl) quinolin-2(1H)-one] had a melting point of 284 to 286 °C. In data set [1], this compound had an IC50 of 1250 nM and an inhibition constant (Ki) of 690 nM. In data set [2], the midpoint of inhibition, the IC50, lay at 1370 nM; the Ki worked out at 760 nM; the “Selectivity index I/IX” value is recorded as 0.91; the “Selectivity index II/IX” value is 0.88. Also, in data set [3], half-maximal inhibition (IC50) required 590 nM, the Ki worked out at 330 nM, the “Selectivity index I/XII” value is 2.12 and the “Selectivity index II/XII” value is reported as 2.06. Further, in [4], the IC50 stood at 1210 nM and the Ki is 670 nM.

`CCn1c(N)c(/N=C/c2cc3cccc(C)c3[nH]c2=O)c(=O)[nH]c1=O` [Compound 10f, (E)-6-Amino-1-ethyl-5-(((8-methyl-2-oxo-1,2-dihydroquinolin-3-yl)methylene)amino)pyrimidine-2,4(1H,3H)-dione] returned a melting point of 278 to 280 °C. Further, in data set [1], the IC50 was 330 nM and the Ki was 180 nM. In data set [2], half-maximal inhibition (IC50) was put at 270 nM, the Ki was determined as 140 nM, the “Selectivity index I/IX” value turned out to be 1.23 and the “Selectivity index II/IX” value is listed as 2.99. Moreover, in data set [3], the IC50 worked out at 170 nM; the affinity, expressed as Ki, was 90 nM; the “Selectivity index I/XII” value was determined as 1.95; the “Selectivity index II/XII” value is recorded as 4.72. Also, in data set [4], the IC50 is 790 nM and the Ki stood at 440 nM.

On to `CCn1c(N)c(/N=C/c2cc3ccccc3[nH]c2=O)c(=O)[nH]c1=O` [Compound 10c, (E)-6-Amino-1-ethyl-5-(((2-oxo-1,2-dihydroquinolin-3-yl)methylene)amino)pyrimidine-2,4(1H,3H)-dione], for which the melting point was in the range of 290 to 292 °C. For the same compound, in [1], it took 1760 nM to reach half-maximal inhibition (IC50) and the Ki was 970 nM. Also, in [2], the IC50 turned out to be 400 nM, the affinity corresponds to a Ki of 220 nM, the “Selectivity index I/IX” value was determined as 4.37 and the “Selectivity index II/IX” value is 1.65. In addition, in data set [3], inhibition was half-maximal at 490 nM (IC50), the Ki was found to be 270 nM, the “Selectivity index I/XII” value was 3.62 and the “Selectivity index II/XII” value worked out at 1.37. For the same compound, in data set [4], half-maximal inhibition (IC50) required 660 nM and the Ki was found to be 370 nM.

Consider `COc1ccc2[nH]c(=O)c(/C=N/c3c(N)n(Cc4ccccc4)c(=O)[nH]c3=O)cc2c1` [Compound 10i, (E)-6-Amino-1-benzyl-5-(((6-methoxy-2-oxo-1,2-dihydroquinolin-3-yl)methylene)amino) pyrimidine-2,4(1H,3H)-dione], for which the melting point was 291 to 293 °C. In data set [1], this compound yielded an IC50 of 2110 nM and a Ki of 1170 nM. Further, in data set [2], the IC50 amounted to 910 nM, the Ki was found to be 510 nM, the “Selectivity index I/IX” value amounted to 2.31 and the “Selectivity index II/IX” value is given as 1.17. Besides, in [3], the IC50 amounted to 230 nM, the Ki was determined as 130 nM, the “Selectivity index I/XII” value stood at 9.07 and the “Selectivity index II/XII” value is recorded as 4.60. In data set [4], this compound displayed an IC50 of 1070 nM and an inhibition constant (Ki) of 590 nM.
